Target: human plasma kallikrein (Homo sapiens, UniProt P03952)
Test: Kallikrein inhibition FLINT assay with quenched AMC peptide substrate Z-Gly-Pro-Arg-AMC (end point EP or kinetic KIN reads)
Type: biochemical
Settings: kinetic reads at 5 min intervals over 30 min; read-out: Kallikrein (KIN) IC50
Outline: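 Enzyme and compound were preincubated 30 min before adding 50 μM AMC substrate in pH 7.5 Tris/NaCl/CaCl2/BSA/CHAPS buffer. AMC release was read at 30 min endpoint or every 5 min.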

Sequence of human plasma kallikrein (P03952 391-638 limits assumed): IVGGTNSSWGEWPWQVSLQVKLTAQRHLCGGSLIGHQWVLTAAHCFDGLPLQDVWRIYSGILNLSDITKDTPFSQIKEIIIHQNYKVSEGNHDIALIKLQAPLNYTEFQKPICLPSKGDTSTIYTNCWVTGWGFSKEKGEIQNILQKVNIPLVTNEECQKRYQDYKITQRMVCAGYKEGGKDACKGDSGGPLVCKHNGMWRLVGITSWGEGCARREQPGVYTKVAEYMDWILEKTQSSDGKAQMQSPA
Sequence of human plasma kallikrein (P03952 20-390 partner limits assumed): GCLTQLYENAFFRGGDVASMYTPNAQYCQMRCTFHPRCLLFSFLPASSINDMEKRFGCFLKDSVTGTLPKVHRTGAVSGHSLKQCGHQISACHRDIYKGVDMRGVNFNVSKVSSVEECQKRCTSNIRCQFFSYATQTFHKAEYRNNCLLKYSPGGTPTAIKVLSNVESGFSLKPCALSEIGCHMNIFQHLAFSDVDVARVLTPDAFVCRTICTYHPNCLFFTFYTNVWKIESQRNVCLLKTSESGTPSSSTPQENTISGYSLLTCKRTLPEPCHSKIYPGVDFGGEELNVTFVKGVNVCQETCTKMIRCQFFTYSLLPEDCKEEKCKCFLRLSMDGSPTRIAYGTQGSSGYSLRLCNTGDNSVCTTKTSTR

Structure (SMILES) | IC50 [nM]
CCC(c1ccc(-c2c(-n3cnnn3)ccc(Cl)c2F)c[n+]1[O-])n1cc(-c2cc[n+]([O-])cc2)cn1 (single isomer, unassigned) [Example P234] | 298
CN(C)C(=O)CC(c1ccc(-c2c(-n3cc(C(F)(F)F)nn3)ccc(Cl)c2F)c[n+]1[O-])n1cc(-c2ccc(C(N)=O)c(F)c2)cn1 (stereo not drawn) [Example P884] | 61.3
[O-][n+]1cc(-c2c(-n3cnnn3)ccc(Cl)c2F)ccc1C(Cn1cc(-c2ccccn2)cn1)n1cc(-c2ccccn2)cn1 (single isomer, unassigned) [Example P515] | 144
NC(=O)C1CC1CC(c1ccc(-c2c(-n3cnnn3)ccc(Cl)c2F)c[n+]1[O-])n1cc(-c2ccc(N)nc2F)cn1 (racemic) [Example P201] | 73.9
CCC(c1ccc(-c2c(-n3cnnn3)ccc(Cl)c2F)c[n+]1[O-])n1cc(-c2ccc(NC(=O)OC)cc2)cn1 (stereo not drawn) [Example P153] | 108
Cc1ncn(-c2cnn(C(CCOC(F)F)c3ccc(-c4c(-n5cc(OC(F)F)nn5)ccc(Cl)c4F)c[n+]3[O-])c2)n1 (single isomer, unassigned) [Example P825] | 588
COC(=O)N(C)CC(c1ccc(-c2c(-n3cnnn3)ccc(Cl)c2F)c[n+]1[O-])n1cc(-c2cc[n+]([O-])c(C(F)F)c2)cn1 (single isomer, unassigned) [Example P392] | 64.1
Cn1nncc1-c1cnn([C@H](Cn2cc(F)cn2)c2ccc(-c3c(-n4cc(Cl)nn4)ccc(Cl)c3F)c[n+]2[O-])c1 [Example P537] | 96.7
[O-][n+]1cc(-c2cc(Cl)ccc2-n2cnnn2)ccc1C(Cc1ccc(Cl)cc1)n1cc(-c2ccc(OC(F)(F)F)cc2)cn1 (stereo not drawn) [Example P150] | 397
[O-][n+]1ccc(-c2cnn(C(Cn3cccn3)c3ccc(-c4c(-n5cnnn5)ccc(Cl)c4F)c[n+]3[O-])c2)cc1C(F)F (single isomer, unassigned) [Example P339] | 670
COCC[C@@H](c1ccc(-c2c(-n3cnnn3)ccc(Cl)c2F)c[n+]1[O-])n1cc(-c2cc(C(F)(F)F)nn2C)cn1 [Example P620] | 5290
CC(C)(O)C[C@H](c1ccc(-c2c(-n3cnnn3)ccc(Cl)c2F)c[n+]1[O-])n1cc(-c2ccnn2C(F)F)cn1 [Example P648] | 532
[O-][n+]1cc(-c2c(-n3cnnn3)ccc(Cl)c2F)ccc1C(CC1CC1)n1cc(-c2cnco2)cn1 (stereo not drawn) [Example P455] | 496
[O-][n+]1cc(-c2c(-n3cc(Cl)nn3)ccc(Cl)c2F)ccc1[C@@H](CCOC(F)F)n1cc(-c2cnn(C(F)F)n2)cn1 [Example P666] | 212
Cn1nc(C(F)(F)F)cc1-c1cnn(C(CC2CC2)c2ccc(-c3c(-n4cnnn4)ccc(Cl)c3F)c[n+]2[O-])c1 (stereo not drawn) [Example P548] | 514
O=C(O)c1ccc(-c2cnn(C(CC(=O)N3CCNCC3)c3ccc(-c4cc(Cl)ccc4-n4cnnn4)c[n+]3[O-])c2)cc1 (stereo not drawn) [Example P90] | 80

Structure (SMILES) | IC50 [nM]
Cc1nccc(-c2cnn(C(CC3CC3)c3ccc(-c4c(-n5cnnn5)ccc(Cl)c4F)c[n+]3[O-])c2)n1 (stereo not drawn) [Example P368] | 621
[O-][n+]1cc(-c2c(-n3cnnn3)ccc(Cl)c2F)ccc1[C@@H](CC1CC1)n1cc(-c2nnn(C(F)F)c2Cl)cn1 [Example P604] | 290
Cn1nccc1-c1cnn(C(Cn2cc(F)cn2)c2ccc(-c3c(-n4cnnn4)ccc(Cl)c3F)c[n+]2[O-])c1 (single isomer, unassigned) [Example P501] | 736
Cc1ncsc1-c1cnn(C(CC2CC2)c2ccc(-c3c(-n4cnnn4)ccc(Cl)c3F)c[n+]2[O-])c1 (stereo not drawn) [Example P488] | 92.5
N#Cc1cc(-c2cnn(C(CC3CC3)c3ccc(-c4c(-n5cnnn5)ccc(Cl)c4F)c[n+]3[O-])c2)ccn1 (stereo not drawn) [Example P294] | 212
N#Cc1cc(-c2cnn(C(Cn3cc(F)cn3)c3ccc(-c4c(-n5cnnn5)ccc(Cl)c4F)c[n+]3[O-])c2)ccn1 (single isomer, unassigned) [Example P453] | 132
[O-][n+]1ccc(-c2cnn(C(Cc3ccc(F)cc3)c3ccc(-c4c(OC(F)F)ccc(Cl)c4F)c[n+]3[O-])c2)cc1 (single isomer, unassigned) [Example Q17] | 7820
[O-][n+]1cc(F)c(-c2cnn(C(CC3CC3)c3ccc(-c4c(-n5cnnn5)ccc(Cl)c4F)c[n+]3[O-])c2)c(Cl)c1 (single isomer, unassigned) [Example P862] | 148
O=C(O)C1CCCN(C(=O)C2CC2CC(c2ccc(-c3c(-n4cnnn4)ccc(Cl)c3F)c[n+]2[O-])n2cc(-c3ccccc3)cn2)C1 (stereo not drawn) [Example P223] | 791
CCOc1cc(C(CC2CC2)n2cc(-c3ncnn3C)cn2)[n+]([O-])cc1-c1cc(Cl)ccc1-n1cc(C(F)(F)F)nn1 (single isomer, unassigned) [Example P945] | 324
[O-][n+]1cc(-c2c(-n3cnnn3)ccc(Cl)c2F)ccc1C(CCOC(F)F)n1cc(-c2cn(C(F)F)nn2)cn1 (single isomer, unassigned) [Example P660] | 287
[O-][n+]1cc(-c2c(-n3cnnn3)ccc(Cl)c2F)ccc1C(CC1CC1)n1cc(-c2scnc2C2CC2)cn1 (stereo not drawn) [Example P535] | 220
Cn1ncc(-c2cnn(C(CCOC(F)F)c3ccc(-c4c(-n5cnnn5)ccc(Cl)c4F)c[n+]3[O-])c2)cc1=O (stereo not drawn) [Example P415] | 184
CC1CC1CC(c1ccc(-c2c(-n3cnnn3)ccc(Cl)c2F)c[n+]1[O-])n1cc(-c2ncnn2C(F)F)cn1 (stereo not drawn) [Example P766] | > 100
O=c1ccccn1CC(c1ccc(-c2c(-n3cnnn3)ccc(Cl)c2F)c[n+]1[O-])n1cc(-c2cc[n+]([O-])c(C(F)F)c2)cn1 (single isomer, unassigned) [Example P373] | 161
O=C(O)c1ccc(-c2cnn(C(c3ccc(-c4cc(Cl)ccc4-n4cnnn4)c[n+]3[O-])C(O)c3ccccc3)c2)cc1 (single isomer, unassigned) [Example P119] | 155

The next molecules have a lower IC50 than those just listed; values first:

IC50 [nM] | Structure (SMILES)
11.3 | O=C1CCC(c2ccc(-c3cnn(C(Cc4ccc(F)cc4)c4ccc(-c5c(-n6cnnn6)ccc(Cl)c5F)c[n+]4[O-])c3)cc2)N1 (stereo not drawn) [Example P121]
10.2 | NC(=O)Cc1ccn(CC(c2ccc(-c3c(-n4cnnn4)ccc(Cl)c3F)c[n+]2[O-])n2cc(-c3ccnc(C(F)(F)F)c3)cn2)n1 (stereo not drawn) [Example P486]
19 | N#Cc1cc(-c2cnn(C(CCOC(F)F)c3ccc(-c4c(-n5cnnn5)ccc(Cl)c4F)c[n+]3[O-])c2)ccn1 (stereo not drawn) [Example P458]
19.1 | [O-][n+]1cc(-c2c(-n3cnnn3)ccc(Cl)c2F)ccc1[C@@H](Cc1cnn(C(F)F)n1)n1cc(-c2ccnc(C(F)(F)F)c2)cn1 [Example P742]
57.5 | Cn1ncc(-c2cnn(C(CC3CC3)c3cc(Cl)c(-c4c(-n5cnnn5)ccc(Cl)c4F)c[n+]3[O-])c2)cc1=O (stereo not drawn) [Example P139]
5.6 | [O-][n+]1cc(-c2c(-n3cnnn3)ccc(Cl)c2F)ccc1[C@@H](CCOC(F)F)n1cc(-c2ccnn2C(F)F)cn1 [Example P564]
7.3 | O=C(O)c1ccc(-c2cnn(C(CCOC(F)F)c3ccc(-c4c(-n5cc(Cl)nn5)ccc(Cl)c4F)c[n+]3[O-])c2)cc1F (single isomer, unassigned) [Example P881]
30.7 | O=C(O)c1ccc(-c2cnn(C(CCOC(F)F)c3ccc(-c4c(-n5cc(C(F)(F)F)nn5)ccc(Cl)c4F)c[n+]3[O-])c2)cc1 (stereo not drawn) [Example P838]
38.5 | CCC(c1cc(OC)c(-c2cc(Cl)ccc2-n2cc(C(F)(F)F)nn2)c[n+]1[O-])n1cc(-c2ncnn2C(F)F)cn1 (single isomer, unassigned) [Example P923]
2.7 | NC(=O)c1ccc(-c2cnn(C(CN3CCCC3=O)c3ccc(-c4c(-n5cc(C(F)(F)F)nn5)ccc(Cl)c4F)c[n+]3[O-])c2)cc1F (single isomer, unassigned) [Example P937]
3.5 | [O-][n+]1cc(-c2c(-n3cnnn3)ccc(Cl)c2F)ccc1C(CCOC(F)F)n1cc(-c2ccncc2F)cn1 (stereo not drawn) [Example P385]
13.4 | NC(=O)c1scc(-c2cnn(C(CC3CC3)c3ccc(-c4c(-n5cnnn5)ccc(Cl)c4F)c[n+]3[O-])c2)c1F (single isomer, unassigned) [Example P953]
39.2 | [O-][n+]1cc(-c2c(-n3cc(Cl)nn3)ccc(Cl)c2F)ccc1[C@@H](CCOC(F)F)n1cc(-c2cnnn2C(F)F)cn1 [Example P668]
43.8 | [O-][n+]1cc(-c2c(-n3cnnn3)ccc(Cl)c2F)ccc1[C@@H](Cc1ccc(F)cc1)n1cc(-c2cn(C(F)F)nn2)cn1 [Example P600]
19.2 | [2H]C([2H])([2H])C([2H])([2H])CC(c1ccc(-c2c(-n3cc(Cl)nn3)ccc(Cl)c2F)c[n+]1[O-])n1cc(-c2ccc(C(N)=O)c(F)c2)cn1 (stereo not drawn) [Example P926]
22.8 | Cn1cc(C[C@H](c2ccc(-c3c(-n4cc(Cl)nn4)ccc(Cl)c3F)c[n+]2[O-])n2cc(-c3ccnc(C(F)(F)F)c3)cn2)nn1 [Example P739]
20.2 | NC(=O)c1ccc(-c2cnn(C(Cc3ncon3)c3ccc(-c4c(-n5cc(C(F)(F)F)nn5)ccc(Cl)c4F)c[n+]3[O-])c2)cc1F (stereo not drawn) [Example P915]
11 | COc1cc(C(Cc2ccn(C(F)F)n2)n2cc(-c3ccc(C(=O)O)c(F)c3)cn2)[n+]([O-])cc1-c1c(C(F)F)ccc(Cl)c1F (stereo not drawn) [Example Q74]
28.5 | COC(=O)NC(C)c1ccc(-c2cnn(C(Cc3ccccc3)c3ccc(-c4cc(Cl)ccc4-n4cnnn4)c[n+]3[O-])c2)cc1 (stereo not drawn) [Example P58]
